Measured values as given in patent US7932266B2, “Isoquinoline derivatives as calpain inhibitors” (Consejo Superior de Investigaciones Cientificas, priority 2004, dated 2011).

Columns and labels:
[1] = system: calpain; experiment: Calpain inhibition, first results on earlier isoquinoline derivatives; assay type: biochemical; conditions: simple derivative of isoquinoline without peptide chain; applicant's first results
[2] = target: T1, calpain I from porcine erythrocyte (Sus scrofa, UniProt P35750); experiment: Enzyme activity test: inhibition of calpain (fluorimetric, BODIPY-FL casein substrate); assay type: biochemical; conditions: 7 inhibitor concentrations between 10 nM and 200 μM
T1 construct: calpain I from porcine erythrocyte (Calbiochem, Cat No 208712) was used as enzyme; purchased Calbiochem 208712; host or cells: porcine erythrocyte (natural source)
T1 sequence (P35750 1-714): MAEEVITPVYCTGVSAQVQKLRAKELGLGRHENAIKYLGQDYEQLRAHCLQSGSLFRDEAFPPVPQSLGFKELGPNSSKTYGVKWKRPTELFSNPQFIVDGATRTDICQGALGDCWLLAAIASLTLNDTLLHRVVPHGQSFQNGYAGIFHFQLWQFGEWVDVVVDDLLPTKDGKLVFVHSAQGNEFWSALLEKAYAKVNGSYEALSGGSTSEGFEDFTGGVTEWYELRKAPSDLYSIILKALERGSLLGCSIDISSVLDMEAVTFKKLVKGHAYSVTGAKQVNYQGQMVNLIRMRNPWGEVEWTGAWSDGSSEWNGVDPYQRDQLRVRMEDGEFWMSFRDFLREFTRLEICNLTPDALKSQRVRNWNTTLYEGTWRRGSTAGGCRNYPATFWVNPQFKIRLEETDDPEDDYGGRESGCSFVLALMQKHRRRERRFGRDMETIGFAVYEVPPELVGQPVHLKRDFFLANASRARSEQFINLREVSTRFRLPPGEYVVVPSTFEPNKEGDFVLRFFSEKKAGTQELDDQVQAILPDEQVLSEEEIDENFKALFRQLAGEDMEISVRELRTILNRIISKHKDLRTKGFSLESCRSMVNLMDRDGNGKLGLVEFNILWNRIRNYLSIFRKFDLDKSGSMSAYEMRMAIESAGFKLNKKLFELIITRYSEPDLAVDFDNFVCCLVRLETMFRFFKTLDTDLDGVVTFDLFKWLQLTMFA
T1 sequence (P04574 1-266 partner): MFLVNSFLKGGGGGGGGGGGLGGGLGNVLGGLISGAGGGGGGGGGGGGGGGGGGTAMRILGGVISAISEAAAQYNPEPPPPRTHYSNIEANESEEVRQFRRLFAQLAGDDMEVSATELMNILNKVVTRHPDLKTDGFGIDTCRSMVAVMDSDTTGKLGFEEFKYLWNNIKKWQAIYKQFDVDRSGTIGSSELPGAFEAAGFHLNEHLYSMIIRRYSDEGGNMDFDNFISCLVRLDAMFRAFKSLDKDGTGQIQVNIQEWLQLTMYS
Description: The capacity to inhibit calpain has been quantified in terms of the value of IC50, which is defined as the concentration of inhibitor that reduces the catalytic activity of an enzyme by half. The lower the value of IC50, the more powerful the inhibitor. Inhibition results on calpain I (the most relevant from a physiological point of view) of some compounds of the present invention are shown in table 1 and in FIG. 1. Given that calpain II, also known as milli-calpain, needs a greater amount of Ca^2+ for activation, it might not possibly have such a relevant physiological role since such a concentration of Ca^2+ would cause cell death before the milli-calpain could become activated. For this reason, the inhibition tests have been performed for calpain I, though they can be extrapolated for calpain II.
The calpain inhibition capacity has been quantified in terms of the value of IC50, which is defined as the concentration of inhibitor that reduces the catalytic activity of an enzyme by half. The lower the value of IC50, the more powerful the inhibitor. Inhibition results on calpain I (the most relevant from a physiological point of view) of some compounds of the present invention are shown in table 1 and in FIG. 1.
The experiments were conducted spectrofluorimetrically using a Spectrofluor Tecan Corp 93382 spectrofluorimeter, exciting at […] and measuring at […]. Casein marked with BODIPY-FL® (Molecular Probes) was used as substrate and calpain I from porcine erythrocyte (Calbiochem, Cat No 208712) was used as enzyme. The freeze-dried substrate is component A of the protease assay kit EnzChek® green fluorescence from Molecular Probes (reference # E-6638); component B, known as 20× digestion buffer, contains 13 mL of 200 mM Tris-HCl, pH 7.8 and 2 mM sodium azide. The commercial calpain I that was used has a concentration of 1 mg in 1 mL of aqueous solution (the solution is 20 mM imidazol-HCl, pH 6.8, 1 mM EDTA, 1 mM EGTA, 5 mM β-mercaptoethanol, containing 30% glycerine).
2.5 mL of 20× digestion buffer (component B of the kit from Molecular Probes) was diluted with water to a total volume of 50 mL.
200 μg of freeze-dried substrate (component A of the kit from Molecular Probes) was dissolved in 200 μL of phosphate saline buffer. This solution was decanted into a graduated flask and diluted with the digestion solution to a total volume of 40 mL.
20 μL of commercial solution of calpain was diluted with the digestion solution to a total volume of 200 μL.
The inhibitor was dissolved in DMSO. Each inhibitor was assayed at 7 different concentrations between 10 nM and 200 μM.
All the data were obtained measuring the variation in fluorescence with time. The use of a multi-cell device and Eppendorf multi-channel pipettes permitted measurement of the variation in fluorescence in up to 64 experiments. In this way, the control experiment and the experiments with the different concentrations of inhibitor was carried out in the same set of measurements. All the experiments were conducted twice.
The control experiment was carried out mixing 180 μL of casein solution and 5 μL of calpain solution. The reaction was initiated by the addition of 10 μL of a 50 μM solution of CaCl2 in water, and the fluorescence was measured from the moment of the addition of Ca^2+ (time=0) and for 250-300 seconds (measuring during 20 kinetic cycles). The variation in fluorescence (ΔF) was represented against time (t). In order to test the effect of DMSO on enzyme activity, additional control experiments were conducted adding DMSO (in the quantities used in the experiments with the inhibitors), with the same result being obtained as in the control experiment.
180 μL of casein solution, 5 μL of calpain solution and 5 μL of inhibitor solution (of variable concentration) were mixed together. […]

SMILES	activity as calpain inhibitor [1]	IC50 [2]	melting point
COC(=O)/C=C1/c2ccccc2C(=O)N[C@H]1C(C)C [Compound 3]	not calpain inhibitors		
CC[C@H](C)[C@H](NC(=O)OCC1c2ccccc2-c2ccccc21)C(=O)Nc1ccccc1-c1ccccc1NC(=O)/C=C1/c2ccccc2C(=O)N[C@H]1[C@@H](C)CC [Compound 21, (S,S,S,S,Z)-9H-fuorene-9-ylmethyl (1-{2′-[2-(3-sec-butyl-1-oxo-2,3-dihydro-1 H-isoquinolin-4-yliden)-acetylamino]-biphenyl-2-ylcarbamoyl}-2-methyl-butyl)-carbamate]		5 µM	116 to 120 °C
CC[C@H](C)[C@@H]1NC(=O)c2ccccc2/C1=C/C(=O)Nc1ccccc1-c1ccccc1NC(=O)/C=C1/c2ccccc2C(=O)N[C@H]1[C@@H](C)CC [Compound 18, (S,S,S,S,Z,Z)-2,2′-bis-[(3-sec-butyl-1-oxo-2,3-dihydro-1H-isoquinolin-4-yliden)-acetylamino]biphenyl]		0.742 µM	177 to 180 °C
CC[C@H](C)[C@@H]1NC(=O)c2ccccc2/C1=C/C(=O)NCc1ccccc1 [Compound 15, (S,S,Z)-N-benzyl-2-(3-sec-butyl-1-oxo-2,3-dihydro-1H-isoquinolin-4-yliden)-acetamide]		140 µM	90 to 94 °C
CC[C@H](C)[C@@H]1NC(=O)c2ccccc2/C1=C/C(=O)OCC#CCOC(=O)/C=C1/c2ccccc2C(=O)N[C@H]1[C@@H](C)CC [Compound 13]		59 µM	85 to 87 °C
CCC(C)C1NC(=O)c2ccccc2/C1=C/C(=O)OC/C=C\COC(=O)/C=C1/c2ccccc2C(=O)N[C@H]1[C@@H](C)CC (stereo partly shown) [Compound 12]		85 µM	79 to 81 °C
CC[C@H](C)[C@@H]1NC(=O)c2ccccc2/C1=C/C(=O)Nc1ccccc1-c1ccccc1NC(=O)[C@@H](N)C(C)C [Compound 22, (S,S,S,Z)-2-amino-N-{2′-[2-(3-sec-butyl-1-oxo-2,3-dihydro-1H-isoquinolin-4-yliden)-acetylamino]-biphenyl-2-yl}-3-methyl-butyramide]		17 µM	110 to 113 °C
